Experimental data taken from the NIST ThermoML archive (doi:10.1021/acs.jced.7b00433).

Assay: xn = mol fraction of the nth substance listed
Conditions: Drop volume

O [water] + NCC(=O)O
x2 = 0
Conditions	surface tension liquid-gas [mN/m]
293.15 K	72.45
298.15 K	71.73
303.15 K	71
308.15 K	70.22
313.15 K	69.45

CCCC(N)C(=O)O (stereo not drawn) [DL-2-aminopentanoic acid] + O
surface tension liquid-gas [mN/m]
Conditions	x1 = 0.000173	x1 = 0.000347	x1 = 0.000561	x1 = 0.00104	x1 = 0.001386	x1 = 0.001733	x1 = 0.002079	x1 = 0.002641
293.15 K	72.55	72.51	72.43	72.37	72.31	72.25	72.16	72.06
298.15 K	71.84	71.8	71.71	71.63	71.53	71.47	71.41	71.25
303.15 K	71.16	71.13	71.01	70.91	70.79	70.71	70.65	70.5
308.15 K	70.35	70.31	70.2	70.1	70.02	69.85	69.78	69.63
313.15 K	69.39	69.34	69.22	69.07	69	68.86	68.75	68.58

O [water] + CC(N)C(=O)O
x2 = 0
Conditions	surface tension liquid-gas [mN/m]
293.15 K	72.5
298.15 K	71.73
303.15 K	71.04
308.15 K	70.3
313.15 K	69.42

O [water] + CCCCC(N)C(=O)O
x2 = 0
Conditions	surface tension liquid-gas [mN/m]
293.15 K	72.5
298.15 K	71.73
303.15 K	71
308.15 K	70.23
313.15 K	69.42

CCCCC(N)C(=O)O (stereo not given) [2-aminohexanoic acid] + O
surface tension liquid-gas [mN/m]
Conditions	x1 = 0.000156	x1 = 0.000311	x1 = 0.000524	x1 = 0.000699	x1 = 0.000873	x1 = 0.001048	x1 = 0.001222	x1 = 0.001411
293.15 K	72.4	72.21	72.02	71.85	71.71	71.48	71.28	71.09
298.15 K	71.55	71.28	71.14	71	70.82	70.59	70.42	70.18
303.15 K	70.74	70.54	70.43	70.22	70.06	69.79	69.65	69.44
308.15 K	69.9	69.8	69.62	69.44	69.23	69	68.8	68.59
313.15 K	69.2	69.02	68.91	68.68	68.47	68.18	68.02	67.87

NCC(=O)O [2-aminoacetic acid] + O
surface tension liquid-gas [mN/m]
Conditions	x1 = 0.000175	x1 = 0.000349	x1 = 0.000698	x1 = 0.001043	x1 = 0.001394	x1 = 0.00174	x1 = 0.002087	x1 = 0.002641
293.15 K	72.47	72.49	72.52	72.57	72.62	72.68	72.73	72.81
298.15 K	71.75	71.79	71.86	71.92	71.99	72.05	72.11	72.2
303.15 K	71.04	71.12	71.23	71.33	71.43	71.54	71.64	71.76
308.15 K	70.26	70.38	70.52	70.66	70.81	70.95	71.09	71.25
313.15 K	69.49	69.63	69.79	69.95	70.11	70.27	70.43	70.61

CCC(N)C(=O)O (stereo not drawn) [(.+-.)-α-aminobutyric acid] + O
surface tension liquid-gas [mN/m]
Conditions	x1 = 0.000177	x1 = 0.000351	x1 = 0.000702	x1 = 0.001053	x1 = 0.001403	x1 = 0.001754	x1 = 0.002103	x1 = 0.002641
293.15 K	72.49	72.49	72.48	72.47	72.46	72.45	72.44	72.43
298.15 K	71.8	71.79	71.77	71.75	71.74	71.72	71.71	71.69
303.15 K	71.08	71.07	71.05	71.02	71	70.98	70.96	70.93
308.15 K	70.25	70.24	70.21	70.19	70.15	70.13	70.09	70.07
313.15 K	69.47	69.45	69.42	69.39	69.35	69.31	69.28	69.22

CC(N)C(=O)O (stereo not drawn) [DL-2-aminopropanoic acid] + O
surface tension liquid-gas [mN/m]
Conditions	x1 = 0.000176	x1 = 0.000353	x1 = 0.000705	x1 = 0.001055	x1 = 0.001406	x1 = 0.001752	x1 = 0.002105	x1 = 0.002642
293.15 K	72.52	72.53	72.55	72.58	72.59	72.62	72.64	72.68
298.15 K	71.83	71.86	71.9	71.95	72	72.07	72.1	72.18
303.15 K	71.11	71.15	71.25	71.35	71.44	71.5	71.61	71.72
308.15 K	70.4	70.42	70.57	70.7	70.83	70.94	71.09	71.28
313.15 K	69.48	69.59	69.73	69.87	70.02	70.2	70.36	70.57

O [water] + CCCC(N)C(=O)O
x2 = 0
Conditions	surface tension liquid-gas [mN/m]
293.15 K	72.58
298.15 K	71.73
303.15 K	71.21
308.15 K	70.4
313.15 K	69.46

O [water] + CCC(N)C(=O)O
x2 = 0
Conditions	surface tension liquid-gas [mN/m]
293.15 K	72.5
298.15 K	71.73
303.15 K	71.1
308.15 K	70.27
313.15 K	69.5
